Read-outs that look alike come from different tables or passages of the source. Blank lines part the entries; values can stand above or below the compound they belong to.
How the values were obtained:
[1] = In vivo pharmacokinetics, oral administration; parameters: species or system C57BL/6 mice; conditions: DQ quantified in whole blood after po 20 mg/kg of the O-carbamate, mice; for AUC0-∞ of DQ / Cmax: 20 mg/kg; for Cmax: read-out: Cmax of DQ
Procedure: Healthy C57BL/6 mice each weighing approximately 25 g were maintained at the University of Cape Town animal facility. Mice were housed in 27 × 21 × 28 cm cages (n = 3) under controlled environmental conditions at 22 ± 2°C, humidity of 55 ± 15% and a 12-hour light/dark cycle. Food and water were available ad libitum. Mice were acclimatised to the experimental environment for 4–5 days prior to initiating the experiments. RMB005, −059 and −060 were prepared in an aqueous solution of HPMC containing 0.2% Tween 80. The weighed compound was sonicated and vortexed to obtain a homogenous suspension. Oral dosing of 20 mg/kg was achieved via oral gavage. The total volume per administration was 200 μL. Blood samples were collected post-dose in lithium heparin microvials via tail bleeding at predetermined intervals at 0.5, 1, 3, 5, 8, 10, and 24 h. Samples were gently vortexed and stored at −80°C until analysis. A quantitative LC-MS/MS assay was used to determine whole-blood concentrations of RMB005, −059 and −060. Whole blood samples (20 μL) were treated with 100 μL ice cold acetonitrile containing the compound RMB073 used previously for determination of whole blood concentrations in analysis of TB-active compounds, as internal standard (200 ng/ml) ([Tanner et al., 2019]). The mixture was vortexed vigorously for 1 min, and 5 µL of the supernatant were injected onto the analytical column following centrifugation (5,590 g for 5 min). Gradient elution was carried out using a Gemini NX-C18 analytical column (5 μm, 2.1 mm × 50 mm). The aqueous mobile phase consisted of 5 mm ammonium acetate with 0.1% acetic acid in deionised water, while the organic phase consisted of 0.1% acetic acid in acetonitrile. A Shimadzu HPLC and reverse phase Gemini NX-C18 column coupled to an AB Sciex 3200 Q TRAP MS was operated at unit resolution in the multiple reaction monitoring (MRM) mode. […] The calibration standards ranged from 2 ng/mL to 3,000 ng/mL for RMB005, and 2 ng/mL to 4,000 ng/mL for RMB059, −060 and DQ. Drug concentration versus time plots for each compound were used to determine maximal drug concentration C max, time T max to reach C max, elimination half-life t 1/2 and the area under the concentration-time curve from time zero to infinity, AUC0-inf. From these values the following PK parameters—clearance CL, volume of distribution (Vd) and oral bioavailability (BA) were determined using the non-compartmental analysis Microsoft Excel Add-In PKSolver ([Zhang et al., 2010]).

[2] = In vivo pharmacokinetics, intravenous administration; parameters: species or system C57BL/6 mice; conditions: mice, 5 mg/kg per table footnote, 5 mg/kg; for t1/2 of DQ: DQ quantified in whole blood after iv dosing of the O-carbamate (RMB059 or RMB060); for CL of DQ / Vd of DQ: DQ quantified in whole blood after iv dosing of the O-carbamate
Procedure: Healthy C57BL/6 mice each weighing approximately 25 g were maintained at the University of Cape Town animal facility. Mice were housed in 27 × 21 × 28 cm cages (n = 3) under controlled environmental conditions at 22 ± 2°C, humidity of 55 ± 15% and a 12-hour light/dark cycle. Food and water were available ad libitum. Mice were acclimatised to the experimental environment for 4–5 days prior to initiating the experiments. […] The total volume of administration was 80 μL. Blood samples were collected post-dose in lithium heparin microvials via tail bleeding at predetermined intervals at 0.16, 0.5, 1, 3, 5, 8, 10, and 24 h. Samples were gently vortexed and stored at −80°C until analysis. A quantitative LC-MS/MS assay was used to determine whole-blood concentrations of RMB005, −059 and −060. Whole blood samples (20 μL) were treated with 100 μL ice cold acetonitrile containing the compound RMB073 used previously for determination of whole blood concentrations in analysis of TB-active compounds, as internal standard (200 ng/ml) ([Tanner et al., 2019]). The mixture was vortexed vigorously for 1 min, and 5 µL of the supernatant were injected onto the analytical column following centrifugation (5,590 g for 5 min). Gradient elution was carried out using a Gemini NX-C18 analytical column (5 μm, 2.1 mm × 50 mm). The aqueous mobile phase consisted of 5 mm ammonium acetate with 0.1% acetic acid in deionised water, while the organic phase consisted of 0.1% acetic acid in acetonitrile. A Shimadzu HPLC and reverse phase Gemini NX-C18 column coupled to an AB Sciex 3200 Q TRAP MS was operated at unit resolution in the multiple reaction monitoring (MRM) mode. […] The calibration standards ranged from 2 ng/mL to 3,000 ng/mL for RMB005, and 2 ng/mL to 4,000 ng/mL for RMB059, −060 and DQ. Drug concentration versus time plots for each compound were used to determine maximal drug concentration C max, time T max to reach C max, elimination half-life t 1/2 and the area under the concentration-time curve from time zero to infinity, AUC0-inf. From these values the following PK parameters—clearance CL, volume of distribution (Vd) and oral bioavailability (BA) were determined using the non-compartmental analysis Microsoft Excel Add-In PKSolver ([Zhang et al., 2010]).

[3] = Lipophilicity, 1-octanol/phosphate buffer pH 7.4 (LogD7.4); assay type: physicochemical
Procedure: Stock solutions ([…]) of compounds were diluted to 100 μM in 96-well deep-well plate containing 1-octanol and phosphate buffer at pH 7.4. The plate was agitated on an orbital shaker at 750 rpm for 2 h. The organic and buffer layers of each well were transferred separately to a new analysis plate. The samples were analysed with the HPLC-diode array detection as described for kinetic solubility. Samples from both layers were analysed to determine LogD7.4 values.

[4] = Plasma stability; assay type: in vitro ADME; conditions: human plasma
Procedure: Stock solutions of compounds in DMSO were used to spike pooled human plasma. Samples were transferred in duplicate to 6 different wells of a 96-deep well plate. An aliquot of each sample was immediately quenched with ice cold acetonitrile containing the internal standard carbamazepine (0.1 μM), after which the plate was incubated in a water bath (37°C for 1 h). Aliquots of samples were removed at 5, 15, 40, 60, and 180 min and quenched with ice cold acetonitrile. After samples of the final time point were precipitated, the supernatant was transferred to a round bottom 96-well plate for analysis by LC-MS/MS using a reverse phase Gemini NX-C18 column (5 μM, 2.1 mm × 50 mm) with a Shimadzu HPLC coupled with an AB Sciex 3200 Q TRAP MS). The peak area ratios were used to calculate the amount of parent compound remaining and t1/2 in plasma, using the following equations.
% Parent remaining % Parent= Normalised peak area of sample at timepoint/Normalised peak area of sample at t=0 x 100
Predicted t1/2 t1/2= −0.693/λ Where λ is the slope of the Ln % parent remaining vs. time curve.

[5] = tested on: multidrug resistant Pf K1; parameters: method as in Beteck et al., 2018; conditions: ref Beteck et al., 2018; read-out: IC50 against multidrug resistant Pf K1; cited from earlier work
[6] = tested on: multidrug resistant Pf W2; parameters: method as in Beteck et al., 2018; conditions: ref Beteck et al., 2018; read-out: Activity against multidrug resistant Pf W2; cited from earlier work
[7] = Metabolic stability in human liver microsomes; assay type: in vitro ADME
Procedure: (§1) A 5-point metabolic stability assay in human and mouse liver microsomes were performed in duplicate in 96-well plates. Stock solution of RMB005, −059 and 060 prepared in DMSO were individually incubated at 37°C in mouse and pooled human liver microsomes (0.4 mg/mL). An aliquot was removed at 0 min and quenched with ice cold acetonitrile containing the internal standard carbamazepine (0.1 μM). The cofactor NADPH was added, and the reactions were subsequently stopped at time points 5, 10, 30, and 60 min by removal of an aliquot and quenching with ice cold acetonitrile containing the internal standard. The supernatant of all samples were analysed via LC-MS/MS analysis (reverse phase Gemini NX-C18 column and Shimadzu HPLC and AB Sciex 3200 Q TRAP MS). Calculation of in vitro t1/2, intrinsic clearance rate (CLint) and predicted in vivo clearance (CLH) was carried out using the following equations ([Obach 1999]). CLintClint= 0.693/t1/2(min) ×Volume of incubation (μL)/microsomal protein (μg) Where t1/2 is calculated in minutes.
(§2) Predicted in vivo CLH CLH=Q × fu(plasma)×CLint/fu(mic)/Q+ fu(plasma)× CLint/fu(mic) Where Q is the hepatic blood flow of mouse (90 mL/min/kg) or human (20.7 mL/min/kg). Fu(plasma) is the unbound drug fraction in the plasma and fu(mic) is the unbound fraction in the microsomes.
(§3) The equation below was used in the case of RMB059 and -060, where protein-binding data were not available. CLH=Q × CLint/Q+ CLint

[8] = Kinetic solubility in PBS (HPLC-DAD); assay type: physicochemical; conditions: phosphate buffer saline (PBS); for solubility kinetic at 2 h: aqueous buffer, kinetic from dmso stock
Procedure: Stock concentrations of test samples (10 mM) were prepared in DMSO and diluted to a final concentration of […] in phosphate buffer saline (PBS) solutions at pH 2, 6.5, and 7.4 in flat-bottomed 96-well plates. A three-point calibration curve of each control and test compound was prepared from stock solutions in DMSO. Plates were agitated on an orbital shaker at room temperature for 2 h at 200 rpm and subsequently analysed using a reverse phase Gemini NX-C18 column (5 μM, 2.1 mm × 50 mm) with an Agilent 1,200 Rapid Resolution HPLC and diode array detection.

[9] = Metabolic stability in mouse liver microsomes; assay type: in vitro ADME
Procedure: as §1, §2, §3

[10] = Passive permeability, parallel artificial membrane permeation assay (PAMPA); assay type: in vitro ADME; conditions: donor pH 6.5, acceptor pH 7.4, 4 h, read-out: Permeability (LogPapp) (converted)
Procedure: A parallel artificial membrane permeation assay (PAMPA) was used to assess the passive permeability of compounds with a 96-well MultiScreen filter plate ([…] pore size, Millipore). The filter plate was precoated with 5% hexadecane in hexane. Stock solutions of compounds were diluted to 1 mM in a donor buffer (pH 6.5). Lucifer yellow was added to the apical wells of the precoated MultiScreen plate containing compound donor solution. The donor buffer solutions were spiked with each test compound (1 mM). The acceptor-buffer solution was prepared by adding 10 μL DMSO to 990 μL acceptor buffer (pH 7.4) and 250 μL were added to the basolateral (acceptor) wells. The donor plate was carefully inserted into the acceptor plate and incubated at room temperature for 4 h. After the incubation period, 50 μL of samples from the acceptor plate were transferred to a round bottom 96-well plate, together with 30 μL of donor buffer for matrix matching. Theoretical equilibrium samples for each test compound were prepared by adding 150 μL of donor solutions to 250 μL acceptor solutions and left at room temperature. These theoretical equilibrium samples represent complete transfer of the compound into the donor well. For the theoretical equilibrium samples, 80 μL were added to the analysis plate. Lastly, 160 μL of the internal standard carbamazepine (0.1 μM) was added to all acceptor and equilibrium samples. A portion of the sample containing Lucifer yellow was analyzed on a BioRad iMark^TM Microplate Absorbance Reader (BioRad, Hercules, CA, United States; excitation 490 nm, emission 510–570 nm) to determine that P app was within the acceptable range (<50 nm/s). Samples were analysed using reverse phase Gemini NX-C18 column (5 μM, 2.1 mm × 50 mm) with a Shimadzu HPLC coupled with an AB Sciex 3200 Q TRAP MS). The Papp for each compound was determined using. C=VD × VA/(VD+VA) ×A×t where VA = volume of donor compartment (0.15 cm^3), VD = volume of acceptor compartment (0.25 cm^3), A = accessible filter area (0.24 cm^2) and t = incubation time (14,400 s). […]

[11] = tested on: Pf NF54; conditions: ref Beteck et al., 2018; read-out: IC50 against Pf NF54; cited from earlier work
[12] = *protein binding data not included

Tmax of DQ [1]: 1.67 ± 0.67 h
AUC0-∞ of DQ [1]: 101 ± 44 µmol·min/L
Cmax [1]: 230 ± 50 nM
t1/2 of DQ [2]: 4.79 ± 1.66 h
CL of DQ [2]: 19.40 ± 3.14 mL/min/kg
Vd of DQ [2]: 8.00 ± 2.96 L/kg
Structure (SMILES): CCCCCCCCCCOc1cc2c(O)c(C(=O)OCC)cnc2cc1OCC [DQ from RMB059]

Tmax of DQ [1]: 1.67 ± 0.67 h
AUC0-∞ of DQ [1]: 63 ± 9 µmol·min/L
Cmax [1]: 110 ± 10 nM
t1/2 of DQ [2]: 4.66 ± 1.16 h
CL of DQ [2]: 21.50 ± 3.38 mL/min/kg
Vd of DQ [2]: 8.88 ± 2.87 L/kg
Structure (SMILES): CCCCCCCCCCOc1cc2c(O)c(C(=O)OCC)cnc2cc1OCC [DQ from RMB060]

logD at 2 h [3]: 2.9
Plasma stability (in words) [4]: high degree of lability
half-life ([4]; pooled plasma, 37°C): 1.1 h
Estimated in vivo CLH HLM [7, 12]: 19.7* mL/min/kg
CLint scaled ([7]; human, pooled liver microsomes, calculated from t1/2 in HLM, read-out: In vitro CLint HLM): 410 mL/min/kg
half-life ([7]; pooled liver microsomes, human liver microsomes, NADPH, read-out: Degradation half-life HLM): 0.177 h
solubility kinetic at 2 h ([8]; PBS pH 2, read-out: Kinetic solubility pH 2): < 5 µM
solubility kinetic at 2 h ([8]; PBS pH 6.5, read-out: Kinetic solubility pH 6.5): < 5 µM
solubility kinetic at 2 h ([8]; PBS pH 7.4, read-out: Kinetic solubility pH 7.4): < 5 µM
solubility at 2 h ([8]; all pH levels tested (pH 2, 6.5, 7.4)): < 5 µM
Estimated in vivo CLH MLM [9, 12]: 75.2* mL/min/kg
half-life ([9]; mouse liver microsomes, NADPH, read-out: Degradation half-life MLM): 0.277 h
CLint scaled ([9]; mouse, liver microsomes, calculated from t1/2 in MLM, read-out: In vitro CLint MLM): 457 mL/min/kg
Papp at 4 h, 1 mM [10]: 1.58 ×10⁻⁶ cm/s
Structure (SMILES): CCCCCCCCCCOc1cc2c(OC(=O)N3CCOCC3)c(C(=O)OCC)cnc2cc1OCC [RMB059]
IC50 [5]: 14.4 nM
IC50 [6]: 5.7 nM
IC50 [11]: 6.8 nM

Reference: article PMC9450014, “The evaluation of ADME and pharmacokinetic properties of decoquinate derivatives for the treatment of malaria” (Frontiers in Pharmacology, 2022)
